Key:
[1] = Human plasma half-life assay; type: in vitro ADME; details: human plasma, 37° C., LC-MS; read-out: Human Plasma T½ (converted)
[2] = Rat plasma half-life assay; type: in vitro ADME; details: rat plasma, 37° C., LC-MS; read-out: Rat Plasma T½ (converted)

SMILES	half-life at 0.1 mg/ml [1]	half-life at 0.1 mg/ml [2]
CCCC[C@H](NC(=O)C(C)(C)NC(=O)[C@@H](NC(=O)[C@H](CO)NC(=O)[C@H](Cc1ccc(O)cc1)NC(=O)[C@H](CC(=O)O)NC(=O)[C@H](CO)NC(=O)[C@@H](NC(=O)[C@H](Cc1ccccc1)NC(=O)[C@@H](NC(=O)CNC(=O)[C@@H]1Cc2ccccc2CN1C(=O)[C@H](C)NC(=O)[C@@H](N)Cc1ccc(O)cc1)[C@@H](C)O)[C@@H](C)CC)[C@@H](C)CC)C(=O)N[C@@H](CC(=O)O)C(=O)N[C@@H](CCCCN)C(=O)N[C@H](C(=O)N[C@@H](Cc1c[nH]cn1)C(=O)N[C@@H](CCC(N)=O)C(=O)N[C@@H](CCC(N)=O)C(=O)N[C@@H](CC(=O)O)C(=O)N[C@@H](Cc1ccccc1)C(=O)N[C@H](C(=O)N[C@@H](CC(N)=O)C(=O)N[C@@H](Cc1c[nH]c2ccccc12)C(=O)N[C@@H](CC(C)C)C(=O)N[C@@H](CC(C)C)C(=O)N[C@@H](C)C(=O)N[C@@H](CCC(N)=O)C(=O)N[C@@H](CCCCN)C(=O)NCC(=O)N[C@@H](CCCCN)C(=O)N[C@@H](CCCCN)C(=O)N[C@@H](CC(N)=O)C(=O)N[C@@H](CC(=O)O)C(=O)N[C@@H](Cc1c[nH]c2ccccc12)C(=O)N[C@@H](CCCCN)C(=O)N[C@@H](Cc1c[nH]cn1)C(=O)N[C@@H](CC(N)=O)C(=O)N[C@H](C(=O)N[C@H](C(=O)N[C@@H](CCC(N)=O)C(=O)O)[C@@H](C)O)[C@@H](C)CC)C(C)C)[C@@H](C)CC [Example 69, (Tic^3, Aib^13, Nle^14)hGIP(1-42)-OH]	36.9 h	1.8 h
CCCC[C@H](NC(=O)C(C)(C)NC(=O)[C@@H](NC(=O)[C@H](CO)NC(=O)[C@H](Cc1ccc(O)cc1)NC(=O)[C@H](CC(=O)O)NC(=O)[C@H](CO)NC(=O)[C@@H](NC(=O)[C@H](Cc1ccccc1)NC(=O)[C@@H](NC(=O)CNC(=O)[C@@H]1C(O)CCN1C(=O)[C@H](C)NC(=O)[C@@H](N)Cc1ccc(O)cc1)[C@@H](C)O)[C@@H](C)CC)[C@@H](C)CC)C(=O)N[C@@H](CC(=O)O)C(=O)N[C@@H](CCCCN)C(=O)N[C@H](C(=O)N[C@@H](Cc1c[nH]cn1)C(=O)N[C@@H](CCC(N)=O)C(=O)N[C@@H](CCC(N)=O)C(=O)N[C@@H](CC(=O)O)C(=O)N[C@@H](Cc1ccccc1)C(=O)N[C@H](C(=O)N[C@@H](CC(N)=O)C(=O)N[C@@H](Cc1c[nH]c2ccccc12)C(=O)N[C@@H](CC(C)C)C(=O)N[C@@H](CC(C)C)C(=O)N[C@@H](C)C(=O)N[C@@H](CCC(N)=O)C(=O)N[C@@H](CCCCN)C(=O)NCC(=O)N[C@@H](CCCCN)C(=O)N[C@@H](CCCCN)C(=O)N[C@@H](CC(N)=O)C(=O)N[C@@H](CC(=O)O)C(=O)N[C@@H](Cc1c[nH]c2ccccc12)C(=O)N[C@@H](CCCCN)C(=O)N[C@@H](Cc1c[nH]cn1)C(=O)N[C@@H](CC(N)=O)C(=O)N[C@H](C(=O)N[C@H](C(=O)N[C@@H](CCC(N)=O)C(=O)O)[C@@H](C)O)[C@@H](C)CC)C(C)C)[C@@H](C)CC (some centres unmarked) [Example 70, (3Hyp^3, Aib^13, Nle^14)hGIP(1-42)-OH]	> 33 h	1.5 h
CC[C@H](C)[C@H](NC(=O)[C@H](CO)NC(=O)[C@H](Cc1ccc(O)cc1)NC(=O)[C@H](CC(=O)O)NC(=O)[C@H](CO)NC(=O)[C@@H](NC(=O)[C@H](Cc1ccccc1)NC(=O)[C@@H](NC(=O)CNC(=O)[C@@H]1Cc2ccccc2CN1C(=O)[C@H](C)NC(=O)[C@@H](N)Cc1ccc(O)cc1)[C@@H](C)O)[C@@H](C)CC)C(=O)N[C@@H](C)C(=O)NC1(C(=O)N[C@@H](CC(=O)O)C(=O)N[C@@H](CCCCN)C(=O)N[C@H](C(=O)N[C@@H](Cc2c[nH]cn2)C(=O)N[C@@H](CCC(N)=O)C(=O)N[C@@H](CCC(N)=O)C(=O)N[C@@H](CC(=O)O)C(=O)N[C@@H](Cc2ccccc2)C(=O)N[C@H](C(=O)N[C@@H](CC(N)=O)C(=O)N[C@@H](Cc2c[nH]c3ccccc23)C(=O)N[C@@H](CC(C)C)C(=O)N[C@@H](CC(C)C)C(=O)N[C@@H](C)C(=O)N[C@@H](CCC(N)=O)C(=O)N[C@@H](CCCCN)C(=O)NCC(=O)N[C@@H](CCCCN)C(=O)N[C@@H](CCCCN)C(=O)N[C@@H](CC(N)=O)C(=O)N[C@@H](CC(=O)O)C(=O)N[C@@H](Cc2c[nH]c3ccccc23)C(=O)N[C@@H](CCCCN)C(=O)N[C@@H](Cc2c[nH]cn2)C(=O)N[C@@H](CC(N)=O)C(=O)N[C@H](C(=O)N[C@H](C(=O)N[C@@H](CCC(N)=O)C(=O)O)[C@@H](C)O)[C@@H](C)CC)C(C)C)[C@@H](C)CC)CCCCC1 [Example 71, (Tic^3, A6c^14)hGIP(1-42)-OH]	> 31 h	4.8 h
CC[C@H](C)[C@H](NC(=O)[C@H](CO)NC(=O)[C@H](Cc1ccc(O)cc1)NC(=O)[C@H](CC(=O)O)NC(=O)[C@H](CO)NC(=O)[C@@H](NC(=O)[C@H](Cc1ccccc1)NC(=O)[C@@H](NC(=O)CNC(=O)[C@@H]1CCCCN1C(=O)[C@H](C)NC(=O)[C@@H](N)Cc1ccc(O)cc1)[C@@H](C)O)[C@@H](C)CC)C(=O)N[C@@H](C)C(=O)NC1(C(=O)N[C@@H](CC(=O)O)C(=O)N[C@@H](CCCCN)C(=O)N[C@H](C(=O)N[C@@H](Cc2c[nH]cn2)C(=O)N[C@@H](CCC(N)=O)C(=O)N[C@@H](CCC(N)=O)C(=O)N[C@@H](CC(=O)O)C(=O)N[C@@H](Cc2ccccc2)C(=O)N[C@H](C(=O)N[C@@H](CC(N)=O)C(=O)N[C@@H](Cc2c[nH]c3ccccc23)C(=O)N[C@@H](CC(C)C)C(=O)N[C@@H](CC(C)C)C(=O)N[C@@H](C)C(=O)N[C@@H](CCC(N)=O)C(=O)N[C@@H](CCCCN)C(=O)NCC(=O)N[C@@H](CCCCN)C(=O)N[C@@H](CCCCN)C(=O)N[C@@H](CC(N)=O)C(=O)N[C@@H](CC(=O)O)C(=O)N[C@@H](Cc2c[nH]c3ccccc23)C(=O)N[C@@H](CCCCN)C(=O)N[C@@H](Cc2c[nH]cn2)C(=O)N[C@@H](CC(N)=O)C(=O)N[C@H](C(=O)N[C@H](C(=O)N[C@@H](CCC(N)=O)C(=O)O)[C@@H](C)O)[C@@H](C)CC)C(C)C)[C@@H](C)CC)CCCCC1 [Example 72, (hPro^3, A6c^14)hGIP(1-42)-OH]	10.7 h	0.45 h
CC[C@H](C)[C@H](NC(=O)[C@H](CCCCN)NC(=O)[C@H](CC(=O)O)NC(=O)[C@H](CCSC)NC(=O)[C@H](C)NC(=O)[C@@H](NC(=O)C1(NC(=O)[C@H](Cc2ccc(O)cc2)NC(=O)[C@H](CC(=O)O)NC(=O)[C@H](CO)NC(=O)[C@@H](NC(=O)[C@H](Cc2ccccc2)NC(=O)[C@@H](NC(=O)CNC(=O)[C@@H]2CCCCN2C(=O)[C@H](C)NC(=O)[C@@H](N)Cc2ccc(O)cc2)[C@@H](C)O)[C@@H](C)CC)CCCC1)[C@@H](C)CC)C(=O)N[C@@H](Cc1c[nH]cn1)C(=O)N[C@@H](CCC(N)=O)C(=O)N[C@@H](CCC(N)=O)C(=O)N[C@@H](CC(=O)O)C(=O)N[C@@H](Cc1ccccc1)C(=O)N[C@H](C(=O)N[C@@H](CC(N)=O)C(=O)N[C@@H](Cc1c[nH]c2ccccc12)C(=O)N[C@@H](CC(C)C)C(=O)N[C@@H](CC(C)C)C(=O)N[C@@H](C)C(=O)N[C@@H](CCC(N)=O)C(=O)N[C@@H](CCCCN)C(=O)NCC(=O)N[C@@H](CCCCN)C(=O)N[C@@H](CCCCN)C(=O)N[C@@H](CC(N)=O)C(=O)N[C@@H](CC(=O)O)C(=O)N[C@@H](Cc1c[nH]c2ccccc12)C(=O)N[C@@H](CCCCN)C(=O)N[C@@H](Cc1c[nH]cn1)C(=O)N[C@@H](CC(N)=O)C(=O)N[C@H](C(=O)N[C@H](C(=O)N[C@@H](CCC(N)=O)C(=O)O)[C@@H](C)O)[C@@H](C)CC)C(C)C [Example 74, (hPro^3, A5c^11)hGIP(1-42)-OH]	16.3 h	1.3 h
CC[C@H](C)[C@H](NC(=O)[C@H](CO)NC(=O)[C@H](Cc1ccc(O)cc1)NC(=O)[C@H](CC(=O)O)NC(=O)[C@H](CO)NC(=O)C1(NC(=O)[C@H](Cc2ccccc2)NC(=O)[C@@H](NC(=O)CNC(=O)[C@@H]2CCCN2C(=O)[C@H](C)NC(=O)[C@@H](N)Cc2ccc(O)cc2)[C@@H](C)O)CCCC1)C(=O)N[C@@H](C)C(=O)NC1(C(=O)N[C@@H](CC(=O)O)C(=O)N[C@@H](CCCCN)C(=O)N[C@H](C(=O)N[C@@H](Cc2c[nH]cn2)C(=O)N[C@@H](CCC(N)=O)C(=O)N[C@@H](CCC(N)=O)C(=O)N[C@@H](CC(=O)O)C(=O)N[C@@H](Cc2ccccc2)C(=O)N[C@H](C(=O)N[C@@H](CC(N)=O)C(=O)N[C@@H](Cc2c[nH]c3ccccc23)C(=O)N[C@@H](CC(C)C)C(=O)N[C@@H](CC(C)C)C(=O)N[C@@H](C)C(=O)N[C@@H](CCC(N)=O)C(=O)N[C@@H](CCCCN)C(=O)NCC(=O)N[C@@H](CCCCN)C(=O)N[C@@H](CCCCN)C(=O)N[C@@H](CC(N)=O)C(=O)N[C@@H](CC(=O)O)C(=O)N[C@@H](Cc2c[nH]c3ccccc23)C(=O)N[C@@H](CCCCN)C(=O)N[C@@H](Cc2c[nH]cn2)C(=O)N[C@@H](CC(N)=O)C(=O)N[C@H](C(=O)N[C@H](C(=O)N[C@@H](CCC(N)=O)C(=O)O)[C@@H](C)O)[C@@H](C)CC)C(C)C)[C@@H](C)CC)CCCC1 [Example 76, (Pro^3, A5c^7, 14)hGIP(1-42)-OH]	55.9 h	1 h
CC[C@H](C)[C@H](NC(=O)[C@H](CCCCN)NC(=O)[C@H](CC(=O)O)NC(=O)[C@H](CCSC)NC(=O)[C@H](C)NC(=O)[C@@H](NC(=O)C1(NC(=O)[C@H](Cc2ccc(O)cc2)NC(=O)[C@H](CC(=O)O)NC(=O)[C@H](CO)NC(=O)[C@@H](NC(=O)[C@H](Cc2ccccc2)NC(=O)[C@@H](NC(=O)CNC(=O)[C@@H]2CCCN2C(=O)[C@H](C)NC(=O)[C@@H](N)Cc2ccc(O)cc2)[C@@H](C)O)[C@@H](C)CC)CCCC1)[C@@H](C)CC)C(=O)N[C@@H](Cc1c[nH]cn1)C(=O)N[C@@H](CCC(N)=O)C(=O)N[C@@H](CCC(N)=O)C(=O)N[C@@H](CC(=O)O)C(=O)N[C@@H](Cc1ccccc1)C(=O)N[C@H](C(=O)N[C@@H](CC(N)=O)C(=O)N[C@@H](Cc1c[nH]c2ccccc12)C(=O)N[C@@H](CC(C)C)C(=O)N[C@@H](CC(C)C)C(=O)N[C@@H](C)C(=O)N[C@@H](CCC(N)=O)C(=O)N[C@@H](CCCCN)C(=O)NCC(=O)N[C@@H](CCCCN)C(=O)N[C@@H](CCCCN)C(=O)N[C@@H](CC(N)=O)C(=O)N[C@@H](CC(=O)O)C(=O)N[C@@H](Cc1c[nH]c2ccccc12)C(=O)N[C@@H](CCCCN)C(=O)N[C@@H](Cc1c[nH]cn1)C(=O)N[C@@H](CC(N)=O)C(=O)N[C@H](C(=O)N[C@H](C(=O)N[C@@H](CCC(N)=O)C(=O)O)[C@@H](C)O)[C@@H](C)CC)C(C)C [Example 77, (Pro^3, A5c^11)hGIP(1-42)-OH]	43.3 h	1.5 h

Reference: patent US9074014B2 (Ipsen Pharma S.A.S., priority 2008, dated 2015)
